Assay results: PMC11676667, “Pharmacokinetics of Oral Cannabinoid Δ8-Tetrahydrocannabivarin and Its Main Metabolites in Healthy Participants” (Pharmaceuticals, 2024)

Experiment: Plasma pharmacokinetics after single oral dose of Δ8-THCV in MCT oil (LC-MS/MS, non-compartmental analysis)
Format: in vivo, human
Design: Clast (last quantifiable concentration): unit not given here
Settings: for Clast (last quantifiable concentration) / tlast (time to last quantifiable concentration) / concentration at 0.5 h / concentration at 1 h / concentration at 2 h / concentration at 4 h / concentration at 6 h / concentration at 8 h: plasma; for plasma concentration: Predose; for concentration at 0.5 h / concentration at 1 h / concentration at 2 h / concentration at 4 h / concentration at 6 h / concentration at 8 h: human, oral
Outline: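 Healthy participants received single oral Δ8-THCV in MCT oil (50 mg/mL; 12.5-200 mg, or placebo) after a high-fat, high-calorie breakfast, with ≥1-week washout. Plasma (K2EDTA) sampled predose and 0.5-8 h post-dose, assayed by validated LC-MS/MS including metabolites; PK by non-compartmental analysis, sub-LLOQ values set to 0.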

[1] = 12.5 mg single oral Δ8-THCV in MCT oil, Mean (±SD)
[2] = 12.5 mg single oral Δ8-THCV in MCT oil, Median (Range)
[3] = 25 mg single oral Δ8-THCV in MCT oil, Mean (±SD)
[4] = 25 mg single oral Δ8-THCV in MCT oil, Median (Range)
[5] = 50 mg single oral Δ8-THCV in MCT oil, Mean (±SD)
[6] = 50 mg single oral Δ8-THCV in MCT oil, Median (Range)
[7] = 100 mg single oral Δ8-THCV in MCT oil, Mean (±SD)
[8] = 100 mg single oral Δ8-THCV in MCT oil, Median (Range)
[9] = 200 mg single oral Δ8-THCV in MCT oil, Mean (±SD)
[10] = 200 mg single oral Δ8-THCV in MCT oil, Median (Range)
[11] = 12.5 mg, 12.5 mg Δ8-THCV dose, Mean (SD, %CV)
[12] = 12.5 mg, 12.5 mg Δ8-THCV dose, Median (IQ Range)
[13] = 25 mg, 25 mg Δ8-THCV dose, Mean (SD, %CV)
[14] = 25 mg, 25 mg Δ8-THCV dose, Median (IQ Range)
[15] = 50 mg, 50 mg Δ8-THCV dose, Mean (SD, %CV)
[16] = 50 mg, 50 mg Δ8-THCV dose, Median (IQ Range)

SMILES: CCCc1cc(O)c2c(c1)OC(C)(C)[C@@H]1CC=C(C)C[C@@H]21 [Δ8-THCV, Δ8-tetrahydrocannabivarin]
- Clast (last quantifiable concentration) [1]: 0.9 (±0.3)
- tlast (time to last quantifiable concentration) [1]: 5.3 (±2.3)
- Clast (last quantifiable concentration) [2]: 0.7 (0.6–1.5)
- tlast (time to last quantifiable concentration) [2]: 5 (2–8)
- Clast (last quantifiable concentration) [3]: 1.1 (±0.4)
- tlast (time to last quantifiable concentration) [3]: 6.3 (±1.9)
- Clast (last quantifiable concentration) [4]: 1 (0.5–1.8)
- tlast (time to last quantifiable concentration) [4]: 7 (4–8)
- Clast (last quantifiable concentration) [5]: 2.3 (±1.5)
- tlast (time to last quantifiable concentration) [5]: 7.9 (±0.5)
- Clast (last quantifiable concentration) [6]: 2.2 (0.6–5.5)
- tlast (time to last quantifiable concentration) [6]: 8 (6–8)
- Clast (last quantifiable concentration) [7]: 4.1 (±3.1)
- tlast (time to last quantifiable concentration) [7]: 8 (±0)
- Clast (last quantifiable concentration) [8]: 3.1 (0.8–9.9)
- tlast (time to last quantifiable concentration) [8]: 8 (8–8)
- Clast (last quantifiable concentration) [9]: 21.2 (±23.2)
- tlast (time to last quantifiable concentration) [9]: 8 (±0)
- Clast (last quantifiable concentration) [10]: 13.4 (1.5–87.6)
- tlast (time to last quantifiable concentration) [10]: 8 (8–8)
- plasma concentration (12.5 mg Δ8-THCV dose, Mean (SD, %CV)): 0 (±0, --) ng/mL
- plasma concentration (12.5 mg Δ8-THCV dose, Median (IQ Range)): 0 (0–0) ng/mL
- plasma concentration (25 mg Δ8-THCV dose, Mean (SD, %CV)): 0 (±0, --) ng/mL
- plasma concentration (25 mg Δ8-THCV dose, Median (IQ Range)): 0 (0–0) ng/mL
- plasma concentration (50 mg Δ8-THCV dose, Mean (SD, %CV)): 0 (±0, --) ng/mL
- plasma concentration (50 mg Δ8-THCV dose, Median (IQ Range)): 0 (0–0) ng/mL
- plasma concentration (100 mg Δ8-THCV dose, Mean (SD, %CV)): 0 (±0, --) ng/mL
- plasma concentration (100 mg Δ8-THCV dose, Median (IQ Range)): 0 (0–0) ng/mL
- plasma concentration (200 mg Δ8-THCV dose, Mean (SD, %CV)): 0 (±0, --) ng/mL
- plasma concentration (200 mg Δ8-THCV dose, Median (IQ Range)): 0 (0–0) ng/mL
- median AUClast ratio Δ8-THCV-COOH/Δ8-THCV/11-OH-Δ8-THCV (after the 200 mg dose, Δ8-THCV = 1): 1
- concentration at 0.5 h [11]: 0 ng/mL
- concentration at 0.5 h [12]: 0 ng/mL
- concentration at 1 h [11]: 0.1 ng/mL
- concentration at 1 h [12]: 0 ng/mL
- concentration at 2 h [11]: 0.4 ng/mL
- concentration at 2 h [12]: 0 ng/mL
- concentration at 4 h [11]: 0.7 ng/mL
- concentration at 4 h [12]: 0.6 ng/mL
- concentration at 6 h [11]: 0.5 ng/mL
- concentration at 6 h [12]: 0 ng/mL
- concentration at 8 h [11]: 0.2 ng/mL
- concentration at 8 h [12]: 0 ng/mL
- concentration at 0.5 h [13]: 0 ng/mL
- concentration at 0.5 h [14]: 0 ng/mL
- concentration at 1 h [13]: 0.3 ng/mL
- concentration at 1 h [14]: 0 ng/mL
- concentration at 2 h [13]: 1.4 ng/mL
- concentration at 2 h [14]: 0.3 ng/mL
- concentration at 4 h [13]: 1.8 ng/mL
- concentration at 4 h [14]: 1.5 ng/mL
- concentration at 6 h [13]: 0.9 ng/mL
- concentration at 6 h [14]: 0.7 ng/mL
- concentration at 8 h [13]: 0.4 ng/mL
- concentration at 8 h [14]: 0.3 ng/mL
- concentration at 0.5 h [15]: 0.1 ng/mL
- concentration at 0.5 h [16]: 0 ng/mL
- concentration at 1 h [15]: 0.5 ng/mL
- concentration at 1 h [16]: 0 ng/mL
- concentration at 2 h [15]: 2.6 ng/mL
- concentration at 2 h [16]: 0 ng/mL
- concentration at 4 h [15]: 4.3 ng/mL
- concentration at 4 h [16]: 2.4 ng/mL
- concentration at 6 h [15]: 6.1 ng/mL
- concentration at 6 h [16]: 2.8 ng/mL
- concentration at 8 h [15]: 2.2 ng/mL
- concentration at 8 h [16]: 2.2 ng/mL
- concentration at 0.5 h (100 mg, 100 mg Δ8-THCV dose, Mean (SD, %CV)): 0.2 ng/mL
